Earlier results as cited in patent US9539278B2, “Preparation for use of aspartate and vitamin B12 or biotin for regulating ketone bodies” (N.V. Nutricia, priority 2004, dated 2017).

Tested on: blood ketone body concentrations
Settings: rats, after consumption of high doses of alanine

SMILES: C[C@H](N)C(=O)O [alanine]
- blood levels of ketone bodies: decreased
